The values below come from PMC11286609, “In vitro and in vivo analyses of eFAP: a novel FAP-targeting small molecule for radionuclide theranostics and other oncological interventions” (EJNMMI Radiopharmacy and Chemistry, 2024).

The target in one series is T1, muFAP (Mus musculus, UniProt P97321).
T1 sequence (P97321 1-761): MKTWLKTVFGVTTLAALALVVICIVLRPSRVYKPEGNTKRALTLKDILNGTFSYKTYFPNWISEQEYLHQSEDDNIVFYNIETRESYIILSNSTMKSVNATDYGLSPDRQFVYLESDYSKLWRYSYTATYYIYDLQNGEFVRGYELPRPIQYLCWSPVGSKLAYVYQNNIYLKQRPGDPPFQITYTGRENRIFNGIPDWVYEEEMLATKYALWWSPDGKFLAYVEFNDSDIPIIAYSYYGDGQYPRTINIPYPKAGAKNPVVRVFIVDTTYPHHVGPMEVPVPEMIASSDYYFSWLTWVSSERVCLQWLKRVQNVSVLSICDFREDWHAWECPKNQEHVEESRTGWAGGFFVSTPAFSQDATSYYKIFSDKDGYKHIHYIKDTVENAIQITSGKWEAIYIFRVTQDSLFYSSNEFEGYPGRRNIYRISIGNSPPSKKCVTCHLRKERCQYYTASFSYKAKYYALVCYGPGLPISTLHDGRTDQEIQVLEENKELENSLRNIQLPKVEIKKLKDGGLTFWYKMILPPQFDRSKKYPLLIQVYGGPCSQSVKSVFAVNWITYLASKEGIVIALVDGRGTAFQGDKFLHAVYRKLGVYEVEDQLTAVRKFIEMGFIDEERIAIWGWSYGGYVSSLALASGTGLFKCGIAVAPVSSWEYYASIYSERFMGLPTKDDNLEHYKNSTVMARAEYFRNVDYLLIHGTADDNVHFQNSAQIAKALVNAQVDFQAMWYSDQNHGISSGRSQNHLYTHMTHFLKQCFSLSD
Description: Recombinant enzymatic inhibition assay, muFAP (Z-Gly-Pro-AMC). Type of series: biochemical, murine. As to conditions: n = 3, picture: nM ± 95% CI. The method, then:
All enzymatic assays were performed in black 384-well plates, and enzymatic activity was measured on a microplate reader, monitoring the fluorescence at λEX 350 nm/λEM 485 nm. […] Val-boroPro (10^− 4 M) and assay buffer served as a positive and negative control, respectively. To measure inhibition of PREP, 50 µL of the reaction mixture containing 1 µM Z-Gly-Pro-AMC and 10 ng PREP (R&D Systems; Minneapolis, MN, USA) were used. The enzymatic assay of DPP4 contained substrate (100 µM), DPP4 (Abcam; Cambridge, UK) (10 nM), assay buffer, and increasing concentrations of the inhibitors (10^− 10 M to 10^− 4 M). Sitagliptin (10^− 4 M) and assay buffer were used as a positive and negative control, respectively. H-Gly-Pro-AMC (100 µM) in assay buffer was used as a baseline control. The plates were analyzed in a Hidex Sense Microplate reader (Hidex; Turku, Finland) at 37 °C under dark conditions for 1 h (huFAP), 2 h (muFAP), or 30 min (PREP, DPP4). For all assays, the components were kept on ice before plating.
All statistical analyses were performed with GraphPad Prism version 9.0 (San Diego, California USA). All IC50 values were determined using a non-linear regression Log(inhibitor) vs. response analysis with variable slope (four parameters). For the in vivo results outliers were identified by a ROUT test (Q = 1%) and excluded. Next, a two-tailed student’s t-test was performed (*p < 0.05, **p < 0.01, ***p < 0.001). All experiments were performed in triplicate and repeated at least three times.

Series [1] deals with T2, dipeptidyl peptidase IV (DPP4) (Homo sapiens, UniProt P27487).
T2 construct: purchased Abcam
Description: Enzymatic inhibition assay, DPP4. As to conditions: recombinant DPP4, n = 3; picture: nM ± 95% CI. In kind it is biochemical. How it is done:
All experiments were performed in triplicate and repeated at least three times.

Series [2] can be described thus: Stability in mouse serum at 37 °C (radio-HPLC / LC-MS). As to conditions: % intact labeled ligand, mouse serum, 37 °C. In kind it is in vitro ADME. The method, then: For the stability assessment of eFAP-6, [^111In]In-eFAP-6 or [^177Lu]Lu-eFAP-6 (~ 3–7 MBq, 20 µL) was mixed with 180 µL of PBS (0.01 M, pH 7.4) and incubated at 37 °C for up to 24 h. A sample of the PBS solution was directly injected on the radio-HPLC at 1, 4, and 24 h after incubation. Additionally, [^111In]In-eFAP-6 and [^177Lu]Lu-eFAP-6 (5–15 MBq, 50 µL) were incubated with 350 µL of commercially acquired mouse or human serum (Biolegend; San Diego, CA, USA) at 37 °C for up to 24 h. Following 1, 4, and 24 h of incubation, 50 µL of the solution were mixed with 50 µL of acetonitrile in an Eppendorf tube, and centrifuged at 5000× g for 20 min. The supernatant was then analyzed by radio-HPLC. Stability studies of eFAP-7 were performed by incubation of eFAP-7 (50 µL, 10^− 4 M) in 450 µL PBS or serum at 37 °C for up to 24 h. After 1, 4, and 24 h of incubation, 50 µL of the PBS incubation solution were directly analyzed by liquid chromatography-mass spectrometry (LC-MS), while 50 µL of the serum solution was mixed with 50 µL of acetonitrile in an Eppendorf tube, and centrifuged at 5000× g for 20 min, followed by LC-MS analyses.

The structures appear in SMILES notation.

T2 sequence (P27487 whole entry, species assumed): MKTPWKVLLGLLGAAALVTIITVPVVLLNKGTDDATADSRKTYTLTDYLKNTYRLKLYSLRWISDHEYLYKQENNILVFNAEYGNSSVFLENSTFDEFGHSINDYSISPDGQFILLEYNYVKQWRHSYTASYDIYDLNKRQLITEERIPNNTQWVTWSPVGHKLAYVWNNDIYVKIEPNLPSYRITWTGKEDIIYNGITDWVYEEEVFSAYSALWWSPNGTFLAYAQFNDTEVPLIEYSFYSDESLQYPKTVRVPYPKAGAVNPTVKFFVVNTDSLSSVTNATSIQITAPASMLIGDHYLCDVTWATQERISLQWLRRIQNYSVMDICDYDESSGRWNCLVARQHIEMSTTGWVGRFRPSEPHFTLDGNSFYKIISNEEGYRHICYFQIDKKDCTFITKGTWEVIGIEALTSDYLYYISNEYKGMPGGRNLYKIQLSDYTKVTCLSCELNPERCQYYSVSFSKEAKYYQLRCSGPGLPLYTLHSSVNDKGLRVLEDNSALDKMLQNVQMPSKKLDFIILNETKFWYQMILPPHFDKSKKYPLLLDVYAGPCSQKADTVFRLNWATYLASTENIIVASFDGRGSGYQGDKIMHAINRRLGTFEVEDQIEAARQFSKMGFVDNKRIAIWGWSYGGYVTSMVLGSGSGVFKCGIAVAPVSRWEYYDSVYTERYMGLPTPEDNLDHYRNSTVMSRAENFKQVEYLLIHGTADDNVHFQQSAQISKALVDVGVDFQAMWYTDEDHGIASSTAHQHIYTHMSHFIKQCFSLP

With `CN(CCCN1CCN(C(=O)CN2CCN(CC(=O)O)CCN(CC(=O)O)CCN(CC(=O)O)CC2)CC1)c1ccc2nccc(C(=O)NCC(=O)N3CC(F)(F)C[C@H]3C#N)c2c1` [FAPI-46, reference compound], the concentration for half-maximal inhibition (IC50) on muFAP came out at 1.55 ± 1.2 nM.

On to `N#C[C@@H]1CC(F)(F)CN1C(=O)CNC(=O)c1ccnc2c(OCCCNC(=O)CN3CCN(CC(=O)O)CCN(CC(=O)O)CCN(CC(=O)O)CC3)cccc12` [eFAP-6, (S)-2,2',2''-(10-(2-((3-((4-((2-(2-cyano-4,4-difluoropyrrolidin-1-yl)-2-oxoethyl)carbamoyl)quinolin-8-yl)oxy)propyl)amino)-2-oxoethyl)-1,4,7,10-tetraazacyclododecane-1,4,7-triyl)triacetic acid], for which the figures for the half-maximal inhibitory concentration (IC50) (at muFAP; in series [1]) were 0.58 ± 0.02 nM and 58600 ± 11400 nM, respectively.

As for `CN1/C(=C/C=C/C=C/C2=[N+](CCCCCC(=O)NCCCOc3cccc4c(C(=O)NCC(=O)N5CC(F)(F)C[C@H]5C#N)ccnc34)c3ccc(S(=O)(=O)[O-])cc3C2(C)C)C(C)(C)c2cc(S(=O)(=O)O)ccc21` [eFAP-7, 1-(6-((3-((4-((2-((S)-2-cyano-4,4-difluoropyrrolidin-1-yl)-2-oxoethyl)carbamoyl)quinolin-8-yl)oxy)propyl)amino)-6-oxohexyl)-3,3-dimethyl-5-sulfo-2-((1E,3E)-5-((E)-1,3,3-trimethyl-5-sulfoindolin-2-ylidene)penta-1,3-dien-1-yl)-3H-indol-1-ium], in series [2] (1 h), the “Stability (% ± SD) Mouse serum 1 h” value amounted to 85.0 ± 3.3%. In addition, the “Stability (% ± SD) Mouse serum 4 h” value in series [2] (4 h) was found to be 83.2 ± 4.1%. Moreover, in series [2] (24 h), the “Stability (% ± SD) Mouse serum 24 h” value is given as 76.2 ± 7.1%. Moreover, the IC50 stood at 4.56 ± 0.2 nM at muFAP and 612000 ± 42700 nM in series [1].

As usually defined, the IC50 is the concentration that inhibits the measured activity by half.
